Key:
[1] = Stability in buffer solution, storage at 50° C. for 476 hours, HPLC; assay type: physicochemical; details: for Stability (100% = concentration before storage) pH: 8: about 0.1% in 50 mM Tris-HCl, pH: 8, stored at 50° C. for 476 hours; for Stability (100% = concentration before storage) pH: 5: about 0.1% in 50 mM acetic acid-NaOH, pH: 5, stored at 50° C. for 476 hours
Method: In the Examples and Test Examples, the analysis of an L-ascorbic acid 2-phosphate salt or an ion thereof was performed using an Ap-containing solution having a known concentration (prepared from L-ascorbic acid 2-phosphate magnesium salt) as a standard by an HPLC method using a Shodex IEC DEAE-825 resin (ammonium acetate 10 mM→1M gradient, detected spectrophotometrically at 265 nm). The elemental analysis was performed by an ICP emission method, flame photometry and an ion chromatography method. Unless otherwise indicated, the reagents used herein were commercially available reagents.
The stability of L-ascorbic acid 2-phosphate zinc salt was compared to that of L-ascorbic acid 2-phosphate magnesium salt. Each salt was dissolved in a buffer solution (50 mM acetic acid-NaOH, pH: 5, or 50 mM Tris-HCl, pH: 8). to a concentration of about 0.1% and stored at 50° C. for 476 hours. The concentrations of the L-ascorbic acid 2-phosphate before and after storage were analyzed by the HPLC method.

B. subtilis (168 strain) = assay: Antimicrobial effect, turbidity in NUTRIENT BROTH; assay type: cell-based; parameters: key: “+” indicates that turbidity increased after incubation; “−” indicates no increase in turbidity; details: 0.1% salt, pH 6.8, about 10^7 cells/ml, 37° C. for 24 hours
Method: (§1) To NUTRIENT BROTH (produced by DIFCO), 0.1% of an L-ascorbic acid 2-phosphate salt was added thereto, and the pH was adjusted to 6.8 using hydrochloric acid or sodium hydroxide. Using 5 ml of the medium thus prepared, test bacterium were inoculated in a concentration of about 10^7 cells/ml and incubated in a test tube at 37° C. for 24 hours. […] As a control, the same test was performed using a medium not containing an L-ascorbic acid 2-phosphate salt.

E. coli (K-12 strain) = assay: Antimicrobial effect, turbidity in NUTRIENT BROTH; assay type: cell-based; parameters: key: “+” indicates that turbidity increased after incubation; “−” indicates no increase in turbidity; details: 0.1% salt, pH 6.8, about 10^7 cells/ml, 37° C. for 24 hours
Method: as §1

[2] = in water; background statement on conventionally known salts; cited from earlier work
Solubility in water = assay type: physicochemical
[3] = listed as L-ascorbic acid 2-phosphate zinc salt (Example 1)
[4] = listed as L-ascorbic acid 2-phosphate zinc salt (Example 2)

SMILES	Increase in turbidity after incubation, B. subtilis (168 strain) (B. subtilis (168 strain))	Increase in turbidity after incubation, E. coli (K-12 strain) (E. coli (K-12 strain))	Concentration of aqueous solution that can be formed [2]	further results
O=C1O[C@H]([C@@H](O)CO)C(O)=C1OP(=O)([O-])[O-].[Mg+2] [L-ascorbic acid 2-phosphate magnesium salt]	+	+	< 30%	Stability (100% = concentration before storage) pH: 8 [1]: 95%; Stability (100% = concentration before storage) pH: 5 [1]: 82%
O=C1O[C@H]([C@@H](O)CO)C(O)=C1OP(=O)([O-])[O-].[Zn+2] [Example 1, L-ascorbic acid 2-phosphate zinc salt]	−	−		Stability (100% = concentration before storage) pH: 8 [1, 3]: 93%; Stability (100% = concentration before storage) pH: 5 [1, 3]: 91%
O=C1O[C@H]([C@@H](O)CO)C(O)=C1OP(=O)([O-])[O-].[Na+].[Na+] [Sodium salt, Sodium L-ascorbic acid 2-phosphate]	+	+	about 30%	
O=C1O[C@H]([C@@H](O)CO)C(O)=C1OP(=O)([O-])[O-].[Zn+2] [Example 2, L-ascorbic acid 2-phosphate zinc salt]				Stability (100% = concentration before storage) pH: 8 [1, 4]: 95%; Stability (100% = concentration before storage) pH: 5 [1, 4]: 92%
O=C1O[C@H]([C@@H](O)CO)C(O)=C1OP(=O)([O-])[O-].[Zn+2] [L-ascorbic acid 2-phosphate zinc salt]				Concentration of aqueous solution easily formed (Solubility in water): ≥ 50 wt %

Reference: patent US6420419B1, “L-ascorbic acid 2-phosphate zinc salt and process for manufacturing the same” (Showa Denko Kabushiki Kaisha, priority 1997, dated 2002)
